Where two headings read alike, the source gives them in different places.
Tests used:
[1] = system: human iPSc derived into astrocytes; assay: Lactate release dose response in human iPSc derived astrocytes; assay type: cell-based; settings: 2 hours treatment
Protocol: Dose response curves were established for compounds identified in the screen to stimulate lactate secretion. The EC50 values for the stimulation of lactate secretion were determined using primary human IPS cell derived astrocytes.
Differentiated human iPSCs (iCell astrocytes, and iCell cardiomyocytes) were obtained from Cellular Dynamics International (CDI, Madison, Wis., USA). iCell astrocytes were cultured in DMEM supplemented with 10% fetal calf serum and N2 complement. iCell cardiomyocytes were maintained in a medium supplied by CDI. Cell cultures were kept in a humidified atmosphere (5% CO2) at 37° C.
Dose response of compounds on lactate release from human iPSc derived into astrocyte fitted with a log (agonist) vs response variable slope to extract efficacy (EC50). Mean±SEM in duplicate.
The unsaturated polyketide/macrocyclic lactone compound mentioned throughout the Examples section is proposed to have the structure corresponding to Compound A as described herein. The toxicity expressed in log IC50 (ATP content after 24 hours compound treatment on human iPSc derived into cardiomyocyte) was compared against the lactate release in log EC50 (lactate secretion after 2 hours compound treatment in human iPSc derived into astrocytes).
Y-axis: relative fluorescence unit, X-axis: logarithm concentration of the compound in mg/ml for fraction and molar for pure compound. […]

[2] = system: human iPSc derived into cardiomyocyte; assay: Toxicity - ATP content (CellTiter-Glo); assay type: cell-based; settings: ATP content after 24 hours
Protocol: iCell Cardiomyocytes were seeded in 384-well plates. Eight days later cells were treated for 24 hours with compounds. Cell viability was determined by the quantification of intracellular ATP after cell lysis. ATP was used as an indicator of metabolically active cells. ATP was measured using a luminescent cell viability assay (CellTiter-Glo®; […]). Luminescence was measured after 20 min in a Bioteck Synergie Neo multimode reader.
Toxicity of the unsaturated polyketide/macrocyclic lactone compounds were evaluated in human IPS cell derived cardiomyocytes by measuring total ATP in cell lysates.
Dose response of compounds on human iPSc derived into cardiomyocyte with evaluation of the ATP level using cell titer glow. Results were normalized between untreated cells (100%) and positive control (0%).
The unsaturated polyketide/macrocyclic lactone compound mentioned throughout the Examples section is proposed to have the structure corresponding to Compound A as described herein. […]
Y-axis: relative fluorescence unit in percentage, X-axis: logarithm concentration of the compound in mg/ml for fraction and molar for pure compound. […]

C/C1=C\C(C)C(=O)CC(O)/C(C)=C/C(C)CC(C)CCC(C(C)C(=O)O)OC(=O)C(C)C1 (stereo not shown)
EC50 ([1]; pure compound (head: mg/ml or M; molar for pure compound), read-out: Astrocytes Lactate release EC50): 1.6 µM | EC50 ([1]; pure compound, log of molar concentration, read-out: Astrocytes Lactate release logEC50 (converted)): 2 µM | IC50 ([2]; pure compound (molar), read-out: Cardiomyocytes Toxicity IC50): > 100 µM | IC50 ([2]; pure compound, log of molar concentration, read-out: Cardiomyocytes Toxicity log IC50 (converted)): > 100 µM

Source: patent US11339111B2, “Polyketide compound and derivatives thereof for use in the prevention and treatment of a neurological disorder” (SOCIETE DES PRODUITS NESTLE S.A., priority 2017, dated 2022)
